Assay [1] has as its target T1, indoleamine 2,3-dioxygenase (IDO) (Homo sapiens, UniProt P14902).
T1 construct: host or cells: HeLa cells treated with IFNγ (25 ng/mL)
In words: HeLa cell-based indoleamine 2,3-dioxygenase (IDO) assay (IFNγ-induced kynurenine production, absorbance 480 nm). The note with it: HeLa cells, IFNγ 25 ng/mL, 48 hour incubation. As for the experimental part:
Assessment of inhibitor activity in HeLa cell-based indoleamine 2,3-dioxygenase (IDO) assay:
HeLa (ATCC® CCL-2) cells were obtained from the ATCC® and cultured in Dulbecco's Modified Eagle Medium supplemented with 4.5 g/L glucose, […] L-glutamine and […] (#10-013-CV, Corning), 2 mM L-alanyl-L-glutamine dipeptide (#35050-061, Gibco), 100U/mL penicillin, 100 μg/mL stroptomycin (#SV30010. HyClone) and 10% fetal bovine serum (#SH30071.03 HyClone). Cells were maintained in a humidified incubator at 37° C. in 5% CO2.
IDO activity was assessed as a function of kynurenine production as follows: HeLa cells were seeded in a 96-well culture plate at a density of 5,000 cells/well and allowed to equilibrate overnight. After 24 hours, the media was aspirated and replaced with media containing IFNγ (#285-IF/CF, R&D Systems) at a final concentration of 25 ng/mL. A serial dilution of each test compound was added to the cells in a total volume of 200 μL of culture medium. After a further 48 hour incubation, 170 μL of supernatant was transferred from each well to a fresh 96-well plate, 12.1 μL of 6.1N trichloroacetic acid (#T0699, Sigma-Aldrich) was added to each well and mixed, followed by incubation at 65° C. for 20 minutes to hydrolyze N-formylkynurenine, the product of indoleamine 2,3-dioxygenase, to kynurenine. The reaction mixture was then centrifuged for 10 mins at 500×g to sediment the precipitate. 100 μL of the supernatant was transferred from each well to a fresh 96-well plate. 100 μl of 2% (w/v) p-dimethylaminobenzaldehyde (#15647-7, Sigma-Aldrich) in acetic acid (#A6283, Sigma-Aldrich) was added to each well mixed and incubated at room temperature for 20 mins. Kynurenine concentrations were determined by measuring absorbance at 480 nm and calibrating against an L-kynurenine (#K8625, Sigma-Aldrich) standard curve using a SPECTRAMAX® M2e microplate reader (Molecular Devices). The percentage activity at each inhibitor concentration was determined and IC50 values assessed using nonlinear regression.

The next assay addresses T2, human IDO1 (Homo sapiens, UniProt P14902).
T2 construct: expressed in transfected cells
Description: IDO inhibition assay in HEK293 cells stably expressing human IDO1 (kynurenine, Ehrlich reagent, absorbance 490 nm). It counts as cell-based. The note with it: 20 hours incubation, read-out: IDO1 HEK Human IC50. The procedure: HEK293 cells were transfected with a pCDNA-based mammalian expression vector harboring human IDO1 cDNA (NM 002164.2) by electroporation. They were cultured in medium (DMEM with 10% FBS) containing 1 mg/ml G418 for two weeks. Clones of HEK293 cells that stably expressed human IDO1 protein were selected and expanded for IDO inhibition assay. The human IDO1/HEK293 cells were seeded at 10,000 cells per 50 μL per well with RPMI/phenol red free media contains 10% FBS in a 384-well black wall clear bottom tissue culture plate (Matrix Technologies LLC) 100 nL of certain concentration of compound was then added to each well using ECHO liquid handling systems. The cells were incubated for 20 hours in 37° C. incubator with 5% CO2. The compound treatments were stopped by adding trichloroacetic acid (Sigma-Aldrich) to a final concentration at 0.2%. The cell plate was further incubated at 50° C. for 30 minute. The equal volume supernatant ([…]) and 0.2% (w/v) Ehrlich reagent (4-dimethylaminobenzaldehyde, Sigma-Aldrich) in glacial acetic acid were mixed in a new clear bottom 384-well plate. This plate was then incubated at room temperature for 30 minute. The absorbance at 490 nm was measured on Envision plate reader. Compound IC50 values were calculated using the counts of 500 nM of a reference standard treatment as one hundred percent inhibition, and counts of no compound but DMSO treatment as zero percent inhibition.

23 molecules from patent US11351164B2, “Inhibitors of indoleamine 2,3-dioxygenase and methods of their use” (BRISTOL-MYERS SQUIBB COMPANY, priority 2016, dated 2022) can be followed below.

T2 sequence (P14902 whole entry): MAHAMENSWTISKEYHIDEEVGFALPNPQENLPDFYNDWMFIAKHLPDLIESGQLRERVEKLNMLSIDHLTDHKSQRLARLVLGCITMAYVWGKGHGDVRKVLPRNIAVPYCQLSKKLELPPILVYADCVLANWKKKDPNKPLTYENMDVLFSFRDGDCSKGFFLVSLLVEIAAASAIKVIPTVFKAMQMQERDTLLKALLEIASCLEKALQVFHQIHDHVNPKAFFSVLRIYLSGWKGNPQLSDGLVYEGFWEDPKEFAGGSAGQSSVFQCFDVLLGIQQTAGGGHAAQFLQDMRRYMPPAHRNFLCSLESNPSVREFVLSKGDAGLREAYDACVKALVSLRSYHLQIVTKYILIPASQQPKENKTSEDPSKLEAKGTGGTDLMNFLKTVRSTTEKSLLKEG
T1 sequence (P14902 whole entry): as above

For the molecule `C[C@@H](Nc1nnc(-c2ccc(C#N)cc2)[nH]1)[C@H]1CC[C@@H](c2ccnc3ccc(F)cc32)CC1` [Example 41, 4-(5-((R)-1-((1s,4S)-4-(6-Fluoroquinolin-4-yl)cyclohexyl)ethylamino)-4H-1,2,4-triazol-3-yl)benzonitrile], the IC50 in assay [1] turned out to be 390 nM; on human IDO1 it was 23.1 nM.
As to `CCC(Nc1nnc(-c2ccc(OC)cc2)o1)C1CCC(Oc2ccnc3ccccc23)CC1` (single isomer, unassigned) [Example 64-2], half-maximal inhibition in assay [1] (IC50) was put at 8.9 nM.
Take `CCC(Nc1nnc(-c2ccc(Cl)cc2)o1)[C@H]1CC[C@@H](c2ccnc3ccc(C(F)(F)F)cc32)CC1` (single isomer, unassigned) [Example 58-1, 5-(4-Chlorophenyl)-N-(1-((1s,4s)-4-(6-(trifluoromethyl)quinolin-4-yl)cyclohexyl)propyl)-1,3,4-oxadiazol-2-amine]: in assay [1], the IC50 was 326 nM.
Consider `C[C@@H](c1nnc(-c2ccccc2)[nH]1)[C@H]1CC[C@@H](c2ccnc3ccc(F)cc32)CC1` [Example 13, 6-fluoro-4-((1S,4s)-4-((R)-1-(5-phenyl-4H-1,2,4-triazol-3-yl)ethyl)cyclohexyl)quinoline], for which the results for the IC50 (in assay [1]; on human IDO1) were 118 nM and 48.2 nM, respectively.
As to `C[C@@H](Nc1ncc(-c2ccc(Cl)cc2)s1)[C@H]1CC[C@@H](c2ccnc3ccc(F)cc32)CC1` [Example 39, 5-(4-Chlorophenyl)-N—((R)-1-((1s,4S)-4-(6-fluoroquinolin-4-yl)cyclohexyl)ethyl)thiazol-2-amine], the IC50 in assay [1] was 288 nM.
Same read-out and setting: as for `C[C@@H](Nc1ncc(-c2ccc(Cl)cc2)o1)[C@H]1CC[C@@H](c2ccnc3ccc(F)cc32)CC1` [Example 38, 5-(4-Chlorophenyl)-N—((R)-1-((1s,4S)-4-(6-fluoroquinolin-4-yl)cyclohexyl)ethyl)oxazol-2-amine], the figure is 21.1 nM; as for `COCC(Nc1nnc(-c2ccc(OC)cc2)o1)[C@H]1CC[C@@H](c2ccnc3ccc(F)cc32)CC1` (single isomer, unassigned) [Example 65-1, N-(1-((1s,4s)-4-(6-Fluoroquinolin-4-yl)cyclohexyl)-2-methoxyethyl)-5-(4-methoxyphenyl)-1,3,4-oxadiazol-2-amine], 15.6 nM; as for `CCC(Nc1nnc(-c2ccc(OC)cc2)o1)[C@H]1CC[C@@H](c2ccnc(F)c2C)CC1` (single isomer, unassigned) [Example 63-1, N-(1-((1s,4s)-4-(2-Fluoro-3-methylpyridin-4-yl)cyclohexyl)propyl)-5-(4-methoxyphenyl)-1,3,4-oxadiazol-2-amine], 26.2 nM.
On the same count and under the same terms, to `CCC(Nc1nnc(-c2ccc(OC)cc2)o1)C1CCC(Oc2ccnc3ccccc23)CC1` (single isomer, unassigned) [Example 64-1] belongs 916 nM.
As for `CCC(Nc1nnc(-c2ccc(Cl)cc2)o1)[C@H]1CC[C@@H](c2ccnc3ccc(C(F)(F)F)cc32)CC1` (single isomer, unassigned) [Example 58-2, 5-(4-Chlorophenyl)-N-(1-((1s,4s)-4-(6-(trifluoromethyl)quinolin-4-yl)cyclohexyl)propyl)-1,3,4-oxadiazol-2-amine], half-maximal inhibition in assay [1] (IC50) required 7.4 nM.
In the case of `CCC(c1nnc(-c2ccc(OC(C)C)cc2)[nH]1)C1CCC(c2ccnc3ccc(F)cc23)CC1` (stereo not shown) [Example 53, 6-Fluoro-4-(4-(1-(5-(4-isopropoxyphenyl)-4H-1,2,4-triazol-3-yl)propyl)cyclohexyl)quinoline], at human IDO1, the IC50 is 144 nM.
On the same count and under the same terms, as for `C[C@@H](c1ncc(-c2ccc(F)cc2)o1)[C@H]1CC[C@@H](c2ccnc3ccc(F)cc32)CC1` [Example 45, 5-(4-Fluorophenyl)-2-((R)-1-((1s,4S)-4-(6-fluoroquinolin-4-yl)cyclohexyl)ethyl)oxazole], the figure is 182 nM.
On to `CCC(Nc1nnc(-c2ccc(OC)cc2)o1)[C@H]1CC[C@@H](c2ccnc3c(C(F)(F)F)cccc32)CC1` (stereo partly shown) [Example 68, 5-(4-Methoxyphenyl)-N-(1-((1s,4s)-4-(8-(trifluoromethyl)quinolin-4-yl)cyclohexyl)propyl)-1,3,4-oxadiazol-2-amine], for which 20.2 nM corresponded to half-maximal inhibition in assay [1] (IC50).
In the case of `C[C@@H](c1nnc(-c2ccc(Cl)cc2)o1)[C@H]1CC[C@@H](c2ccnc3ccc(F)cc32)CC1` [Example 4, 2-(4-Chlorophenyl)-5-((R)-1-((1s,4s)-4-(6-fluoroquinolin-4-yl)cyclohexyl)ethyl)-1,3,4-oxadiazole], the IC50 at human IDO1 is 167 nM.
The same measure, in the same setting: as for `COCc1nnc(N[C@H](C)[C@H]2CC[C@@H](c3ccnc4ccc(F)cc43)CC2)o1` [Example 34, N-((R)-1-((1s,4S)-4-(6-fluoroquinolin-4-yl)cyclohexyl)ethyl)-5-(methoxymethyl)-1,3,4-oxadiazol-2-amine], the figure is 38.6 nM.
The molecule `CCC(Nc1nnc(-c2ccc(OC)cc2)o1)C1CCC(c2ccnc3ccc(C(F)(F)F)cc23)CC1` (single isomer, unassigned) [Example 60, 5-(4-methoxyphenyl)-N-(1-((1s,4s)-4-(6-(trifluoromethyl)quinolin-4-yl)cyclohexyl)propyl)-1,3,4-oxadiazol-2-amine] registered an IC50 in assay [1] of 54.8 nM.
Regarding `COc1ccc(-c2csc(N[C@H](C)[C@H]3CC[C@@H](c4ccnc5ccc(F)cc54)CC3)n2)cc1` [Example 36, N—((R)-1-((1s,4S)-4-(6-Fluoroquinolin-4-yl)cyclohexyl)ethyl)-4-(4-methoxyphenyl)thiazol-2-amine], the 50% inhibitory concentration (IC50) on human IDO1 came out at 729 nM.
`C[C@@H](c1nnc(Nc2ccc(F)cc2)s1)[C@H]1CC[C@@H](c2ccnc3ccc(F)cc32)CC1` [Example 7, N-(4-Fluorophenyl)-5-((R)-1-((1s,4S)-4-(6-fluoroquinolin-4-yl)cyclohexyl)ethyl)-1,3,4-thiadiazol-2-amine]: the IC50 at human IDO1 was 543 nM.
Same read-out and setting: as for `C[C@@H](Nc1nnc(C2CCCCC2)o1)[C@H]1CC[C@@H](c2ccnc3ccc(F)cc32)CC1` [Example 27, 5-Cyclohexyl-N—((R)-1-((1s,4S)-4-(6-fluoroquinolin-4-yl)cyclohexyl)ethyl)-1,3,4-oxadiazol-2-amine], the figure is 9 nM.
Still for that read-out and setting: as for `C[C@@H](Nc1nnc(C2CC2)o1)[C@H]1CC[C@@H](c2ccnc3ccc(F)cc32)CC1` [Example 28, 5-cyclopropyl-N-((R)-1-((1s,4S)-4-(6-fluoroquinolin-4-yl)cyclohexyl)ethyl)-1,3,4-oxadiazol-2-amine], the figure is 37.1 nM; as for `COc1ccc(-c2nnc(N[C@H](C)[C@H]3CC[C@@H](c4ccnc5ccc(F)cc54)CC3)o2)cc1` [Example 25, N—((R)-1-((1s,4S)-4-(6-Fluoroquinolin-4-yl)cyclohexyl)ethyl)-5-(4-methoxyphenyl)-1,3,4-oxadiazol-2-amine], 9.6 nM.
`C[C@@H](c1nnc(Nc2ccc(F)cc2)[nH]1)[C@H]1CC[C@@H](c2ccnc3ccc(F)cc32)CC1` [Example 21, N-(4-Fluorophenyl)-5-((R)-1-((1s,4s)-4-(6-fluoroquinolin-4-yl)cyclohexyl)ethyl)-4H-1,2,4-triazol-3-amine]: the IC50 on human IDO1 came out at 68.2 nM.
With `COc1ccc(-c2nnc(N[C@H](C)[C@H]3CC[C@@H](c4ccnc5ccc(F)cc54)CC3)s2)cc1` [Example 26, N—((R)-1-((1s,4S)-4-(6-Fluoroquinolin-4-yl)cyclohexyl)ethyl)-5-(4-methoxyphenyl)-1,3,4-thiadiazol-2-amine], the half-inhibitory concentration (IC50) at human IDO1 came out at 61.9 nM.

The term IC50 denotes the midpoint of a concentration-inhibition curve.
